According to patent publication US5786358A, “Pyridopyrimidines as nonclassical antifolates” (The Trustees of Princeton University, priority 1996, dated 1998):
In brackets after ≈: the same amount, converted by molar mass. Structures can show the parent of a compound that is named as a salt.

Legend:
CCRF-CEM cell line = assay: CCRF-CEM cell growth inhibition; format: cell-based; conditions: Homo sapiens, read-out: IC50, concentration inhibiting cell growth of a CCRF-CEM cell line by 50% as compared to control
Procedure: For N-(N-{5-[2-(2-amino-4-hydroxy-5,6,7,8-tetrahydropyrido[2,3-d]pyrimidin-6-yl)-ethyl]thien-2-ylcarbonyl}-L-γ-glutamyl)-D-aspartic acid, the IC50 is 0.100 μg/mL. For N-(N-{5-[2-(2-amino-4-hydroxy-5,6,7,8-tetrahydropyrido[2,3-d]pyrimidin-6-yl)ethyl]thien-2-ylcarbonyl}-L-γ-glutamyl)-D-glutamic acid 1-tert.-butyl-2,2-diethyl ester, the IC50 is 1.0 μg/mL. For N-{5-[2-(2-amino-4-hydroxy-5,6,7,8-tetrahydropyrido[2,3-d]pyrimidin-6-yl)- ethyl]thien-2-ylcarbonyl}-L-homocysteic acid α-methyl ester, the IC50 is 0.200 μg/mL. […] For 2-{5-[2-(2-amino-4-hydroxy-5,6,7,8-tetrahydropyrido[2,3-d]pyrimidin-6-yl)ethyl]thien-2-ylcarbonylamino}-3-(2H-tetrazol-5-yl)propanoic acid diammonium salt the IC50 is >100 μg/mL.

[1] = system: 6C3HED lymphosarcoma tumor; assay: 6C3HED lymphosarcoma tumor growth inhibition in C3H female mice; format: in vivo; conditions: daily IV bolus injection for 8 days
Procedure: N-(N-{5-[2-(2-amino-4-hydroxy-5,6,7,8-tetrahydropyrido[2,3 -d]pyrimidin-6-yl)ethyl]thien-2-ylcarbonyl}-L-γ-glutamyl)-D-asparticacid was evaluated against 6C3HED lymphosarcoma tumor in C3H female mice with the compound given daily, IV bolus injection, for 8 days. Compounds were administered in units of mg/kg of body weight. At the end of treatment, tumor weight was estimated using an electronic caliper interfaced to a microcomputer, and average tumor weight was calculated for each dosing level and a control group. Percentage inhibition of tumor growth was calculated as % inhibition of tumor growth according to the expression:
[1-(average tumor weight experimental group/average tumor weight control
Percentage inhibition was not calculated at a particular dosing level if mortality exceeded 20%. Cumulative dose was calculated by multiplying the daily dose by the number of days doses were administered.

[2] = target: T1, human monofunctional GARFT (Homo sapiens, UniProt P22102); assay: Ki against human monofunctional GARFT; format: biochemical; conditions: tight-binding analysis per Henderson; read-out: Ki inhibition constant against human monofunctional GARFT
T1 construct: human monofunctional GARFT
T1 sequence (P22102 810-1010 limits assumed): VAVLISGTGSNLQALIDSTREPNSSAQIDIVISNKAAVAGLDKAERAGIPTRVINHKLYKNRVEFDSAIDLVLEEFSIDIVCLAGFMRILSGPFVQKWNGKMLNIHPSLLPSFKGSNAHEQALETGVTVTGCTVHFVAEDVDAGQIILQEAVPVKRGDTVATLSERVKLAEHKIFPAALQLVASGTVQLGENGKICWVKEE

Row | IC50 (CCRF-CEM cell line) | Ki [2] | SMILES | % inhibition of tumor growth ([1]; 100 mg/kg) | % inhibition of tumor growth ([1]; 200 mg/kg)
1 | 0.1 µg/mL (≈ 0.177 µM) | 0.244 nM | Nc1nc(O)c2c(n1)NCC(CCc1ccc(C(=O)N[C@@H](CCC(=O)N[C@H](CC(=O)O)C(=O)O)C(=O)O)s1)C2 (stereo partly shown) [Example 2] | 100% | 100%
2 | 0.2 µg/mL (≈ 0.4 µM) | 3.5 nM | COC(=O)[C@H](CCS(=O)(=O)O)NC(=O)c1ccc(CCC2CNc3nc(N)nc(O)c3C2)s1 (stereo partly shown) [Example 8] | – | –
3 | 0.82 µg/mL (≈ 1.69 µM) | – | Nc1nc(O)c2c(n1)NCC(CCc1ccc(C(=O)N[C@@H](CCS(=O)(=O)O)C(=O)O)s1)C2 (stereo partly drawn) [Example 9, N-{5-[2-(2-Amino-4-hydroxy-5,6,7,8-tetrahydropyrido[2.3-d]pyrimidin-6-yl)-ethyl]thien-2-ylcarbonyl}-L-homocysteic Acid] | – | –
4 | > 100 µg/mL | 156 nM | Nc1nc(O)c2c(n1)NCC(CCc1ccc(C(=O)NC(Cc3nn[nH]n3)C(=O)O)s1)C2 (stereo not shown) [Example 13] | – | –

Continued, compound first:

Row | SMILES | IC50 (CCRF-CEM cell line) | Ki [2] | % inhibition of tumor growth ([1]; 100 mg/kg) | % inhibition of tumor growth ([1]; 200 mg/kg)
5 | Nc1nc(O)c2c(n1)NCC(CCc1ccc(C(=O)N[C@@H](CCC(=O)N[C@H](CC(=O)O)C(=O)O)C(=O)O)cc1)C2 (stereo partly drawn) [Example 1, N-(N-{4-[2-(2-Amino-4-hydroxy-5,6,7,8-tetrahydropyrido[2,3-d]pyrimidin-6-yl)ethyl]benzoyl}-L-γ-glutamyl)-D-aspartic Acid] | 1.6 µg/mL (≈ 2.86 µM) | – | – | –
6 | Nc1nc(O)c2c(n1)NCC(CCc1ccc(C(=O)N[C@@H](Cc3nn[nH]n3)C(=O)O)cc1)C2 (stereo partly shown) [Example 12, 2-{4-[2-(2-Amino-4-hydroxy-5,6,7,8-tetrahydropyrido[2.3-d]pyrimidin-6-yl)ethyl]benzoylamino}-3-(2H-tetrazol-5-yl)propanoic Acid Diammonium Salt] | 28.6 µg/mL | – | – | –
7 | CCOC(=O)CC[C@@H](NC(=O)CC[C@H](NC(=O)c1ccc(CCC2CNc3nc(N)nc(O)c3C2)s1)C(=O)OC(C)(C)C)C(=O)OCC (stereo partly drawn) [N-(N-{5-[2-(2-amino-4-hydroxy-5,6,7,8-tetrahydropyrido[2,3-d]pyrimidin-6-yl)ethyl]thien-2-ylcarbonyl}-L-γ-glutamyl)-D-glutamic acid 1-tert.-butyl-2,2-diethyl ester] | 1 µg/mL (≈ 1.45 µM) | 7.7 nM | – | –
